Measured values as given in ChEMBL document CHEMBL1154545, “Optimization of a series of 4,6-bis-anilino-1H-pyrrolo[2,3-d]pyrimidine inhibitors of IGF-1R: elimination of an acid-mediated decomposition pathway” (Bioorg Med Chem Lett, 2009).

Experiments:
[1] = Chemical stability assessed as half life in 0.1 N HCl by LC-MS; format: physicochemical
[2] = biological target: T1, Insulin-like growth factor 1 receptor (Homo sapiens, UniProt P08069)
[3] = biological target: T1, Insulin-like growth factor 1 receptor; remark: listed apart in the source
Description: Inhibition of IGF1R phosphorylation by cellular assay

[4] = Clearance in rat at 2.2 mg/kg, iv or 9.8 mg/kg, po; format: ADME, organism-based; conditions: in vivo
Rattus norvegicus [5] = assay: Dose normalized AUC in rat at 9.8 mg/kg, po; format: ADME, organism-based; parameters: dose 9.8 mg/kg, route oral; conditions: in vivo
[6] = Bioavailability in rat at 9.8 mg/kg, po; format: ADME, organism-based; conditions: in vivo
[7] = Clearance in rat at 2.1 mg/kg, iv or 9.2 mg/kg, po; format: ADME, organism-based; conditions: in vivo
Rattus norvegicus [8] = assay: Dose normalized AUC in rat at 9.2 mg/kg, po; format: ADME, organism-based; parameters: dose 9.2 mg/kg, route oral; conditions: in vivo
[9] = Bioavailability in rat at 9.2 mg/kg, po; format: ADME, organism-based; conditions: in vivo
[10] = biological target: ALK tyrosine kinase receptor (Homo sapiens, UniProt Q9UM73); assay: Inhibition of ALK
[11] = biological target: Phosphatidylinositol 4,5-bisphosphate 3-kinase catalytic subunit alpha isoform (Homo sapiens, UniProt P42336); assay: Inhibition of PI3K
[12] = biological target: RAC-alpha serine/threonine-protein kinase (Homo sapiens, UniProt P31749); assay: Inhibition of AKT

| Compound | half-life [1] | IC50 [2] | IC50 [3] | other results |
| --- | --- | --- | --- | --- |
| COc1cc(N2CCC(N3CCN(S(C)(=O)=O)CC3)CC2)ccc1Nc1nc(Nc2ccsc2C(N)=O)c2cc[nH]c2n1 | 17.9 days | 5 nM | 92 nM | – |
| COc1cc(N2CCN(C(C)C)CC2)ccc1Nc1nc(-n2[nH]c(=O)c3ccccc32)c2cc[nH]c2n1 | – | 6 nM | 546 nM | – |
| COc1cc(N2CCN(C(C)C)CC2)ccc1Nc1nc(N2CCc3ccccc32)c2cc[nH]c2n1 | – | 10 nM | 1770 nM | – |
| COc1cc(N2CCN(C(C)C)CC2)ccc1Nc1nc(Nc2ccccc2OC)c2cc[nH]c2n1 | – | 32 nM | 982 nM | – |
| COc1cc(N2CCN(C(C)C)CC2)ccc1Nc1nc2[nH]ccc2c2nc3cccc(F)c3c(=O)n12 | – | 7.9 nM | 30000 nM | clearance [4]: 47 mL/min/kg; AUC (Rattus norvegicus [5]): 18 ng·h/mL/mg/kg; bioavailability [6]: 81% |
| CNC(=O)c1cscc1Nc1nc(Nc2cc3c(cc2OC)CCN3C(=O)CN(C)C)nc2[nH]ccc12 | 16.2 days | 2 nM | 25 nM | – |
| COc1cc(N2CCN(C(C)C)CC2)ccc1Nc1nc(Nc2ccc3ncccc3c2)c2cc[nH]c2n1 | – | 13 nM | 773 nM | – |
| COc1cc(N2CCN(C(C)C)CC2)ccc1Nc1nc(Nc2cccc3c2NCC3)c2cc[nH]c2n1 | – | 400 nM | 1690 nM | – |
| COc1cc2c(cc1Nc1nc(Nc3cccc(F)c3C(N)=O)c3cc[nH]c3n1)N(C(=O)CN(C)C)CC2 | 0.0833 days | 1 nM | 54 nM | – |
| COc1cc(N2CCN(C(C)C)CC2)ccc1Nc1nc(Nc2ccccc2-n2cccn2)c2cc[nH]c2n1 | – | 25 nM | 654 nM | – |
| COc1cc(N2CCN(C(C)C)CC2)ccc1Nc1nc(Nc2ccc(F)c(F)c2C(N)=O)c2cc[nH]c2n1 | 0.708 days | 1.3 nM | – | – |
| COc1cc(N2CCN(C(C)C)CC2)ccc1Nc1nc(Nc2cccc(F)c2C(N)=O)c2cc[nH]c2n1 | 0.708 days | 2 nM | 117 nM | clearance [7]: 51 mL/min/kg; AUC (Rattus norvegicus [8]): 156 ng·h/mL/mg/kg; bioavailability [9]: 65% |
| COc1cc(N2CCN(CC(C)C)CC2)ccc1Nc1nc(Nc2ccccc2C#N)c2cc[nH]c2n1 | – | 79 nM | 2740 nM | – |
| COc1cc(N2CCN(C(C)C)CC2)ccc1Nc1nc(Nc2ccsc2C(N)=O)c2cc[nH]c2n1 | > 41.7 days | 1.6 nM | 106 nM | – |
| COc1cc2c(cc1Nc1nc(Nc3ccsc3C(N)=O)c3cc[nH]c3n1)N(C(=O)CN(C)C)CC2 | 10.4 days | – | – | IC50 [10]: 0.4 nM |
| COc1cc2c(cc1Nc1nc(Nc3ccoc3C(N)=O)c3cc[nH]c3n1)N(C(=O)CN(C)C)CC2 | > 41.7 days | – | – | – |
| CCCN1CCC(c2ccc(Nc3nc(Nc4ccsc4C(N)=O)c4cc[nH]c4n3)c(OC)c2)CC1 | 38.3 days | 1.3 nM | 52 nM | – |
| COc1cc(N2CCN(C(C)C)CC2)ccc1Nc1nc(Nc2cccc3ncccc23)c2cc[nH]c2n1 [GSK-1511931A] | – | 250 nM | 2530 nM | – |
| COc1cc(N2CCN(C(C)C)CC2)ccc1Nc1nc(Nc2cccc(F)c2C(=O)O)c2cc[nH]c2n1 [GSK-1819799A] | – | – | – | clearance [4]: > 200 mL/min/kg; AUC (Rattus norvegicus [5]): 0 ng·h/mL/mg/kg; bioavailability [6]: 0% |

Further lines, with some results ahead:

| half-life [1] | IC50 [2] | IC50 [3] | Compound | other results |
| --- | --- | --- | --- | --- |
| > 41.7 days | 0.5 nM | 15 nM | COc1cc2c(cc1Nc1nc(N3CCc4ccccc43)c3cc[nH]c3n1)N(C(=O)CN(C)C)CCC2 | – |
| > 41.7 days | 0.3 nM | 9 nM | COc1cc2c(cc1Nc1nc(Nc3ccoc3C(N)=O)c3cc[nH]c3n1)N(C(=O)CN(C)C)CCC2 | – |
| 1.12 days | 0.5 nM | 18 nM | COc1cc2c(cc1Nc1nc(Nc3cccnc3C(N)=O)c3cc[nH]c3n1)N(C(=O)CN(C)C)CCC2 | – |
| 0.167 days | 0.7 nM | – | COc1cc(N2CCN(C(C)C)CC2)ccc1Nc1nc(Nc2cc(F)ccc2C(N)=O)c2cc[nH]c2n1 | – |
| 1.62 days | 0.8 nM | – | COc1cc(N2CCN(C(C)C)CC2)ccc1Nc1nc(Nc2cc(F)cc(F)c2C(N)=O)c2cc[nH]c2n1 | – |
| 0.625 days | 0.7 nM | 38 nM | COc1cc2c(cc1Nc1nc(Nc3cccnc3C(N)=O)c3cc[nH]c3n1)N(C(=O)CN(C)C)CC2 | – |
| > 41.7 days | 0.8 nM | 16 nM | COc1cc2c(cc1Nc1nc(Nc3cccc4c3C(=O)NC4)c3cc[nH]c3n1)N(C(=O)CN(C)C)CC2 | IC50 [11]: 0.8 nM; IC50 [12]: 2.5 nM |
| 0.0833 days | 0.9 nM | – | COc1cc(N2CCN(C(C)C)CC2)ccc1Nc1nc(Nc2ccc(F)cc2C(N)=O)c2cc[nH]c2n1 [GSK-1220512A] | – |
| 34.6 days | < 0.2 nM | 6 nM | COc1cc2c(cc1Nc1nc(Nc3ccsc3C(N)=O)c3cc[nH]c3n1)N(C(=O)CN(C)C)CCC2 [GSK-2110236A] | – |
| 30 days | 0.2 nM | < 2 nM | COc1cc2c(cc1Nc1nc(Nc3ccsc3C(N)=O)c3cc[nH]c3n1)N(C(=O)CN(C)C)CCC2(C)C [GSK-2163632A] | – |
| > 41.7 days | 0.8 nM | 160 nM | COc1cc2c(cc1Nc1nc(N3CCc4ccccc43)c3cc[nH]c3n1)N(C(=O)CN(C)C)CC2 [GSK-2186269A] | – |
